Results published in patent publication US11779565B2, “Small organic molecules for use in the treatment of neuroinflammatory disorders” (THE MEDICAL RESEARCH, INFRASTRUCTURE AND HEALTH SERVICES …, priority 2017, dated 2023).

Tests used:
BMP-2 = target: T1, BMP-2 (Homo sapiens, UniProt P12643); assay: ATDC5 cell based HTS bioassay: ALP production stimulated by BMP-2 and heparin; parameters: species or system mouse; conditions: for IC50: inhibition of BMP-2-stimulated ALP in ATDC5 cells, 48 hours, tested at 0.62-10 μM; for inhibition at 2.5 µM: ATDC5 cells, read-out: inhibition of BMP-2 (ALP induction)
T1 construct: purchased R&D Systems
T1 sequence (P12643 283-396): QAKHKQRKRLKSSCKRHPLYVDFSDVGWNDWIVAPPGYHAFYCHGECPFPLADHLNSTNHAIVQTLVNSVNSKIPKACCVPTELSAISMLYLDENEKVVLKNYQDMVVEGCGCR
Method: Poly-L-lysine (Sigma-Aldrich) was added to 384-well plates and was removed after 30 min of incubation at RT. An assay medium containing DMEM/F12, 2% FBS, 100 units/ml penicillin, […] streptomycin (Biological industries) was added to each well. […] ATDC5 cells (Sigma-Aldrich) were harvested, re-suspended in assay medium and added to a final concentration of 2000 cells/well. Finally, heparin (Sigma-Aldrich) was added to a final concentration of 2 μg/ml. The cells were incubated for 48 hours at 37° C. with 5% CO2 in a humidified chamber in the presence or absence of potential small molecule inhibitors of BPM-2. After incubation, ALP levels and cell viability were determined using a completely automated protocol. Cells were washed with PBS, lysed using a lysis buffer containing 0.2% Triton X-100 in PBS supplemented with a protease inhibitor cocktail (Sigma-Aldrich) and incubated for 25 min at RT. ALP level was then determined by addition of CDP-Star® chemiluminescent substrate (Sigma-Aldrich) and measurement of luminescence after incubation for 25 min at RT in the dark. Cell viability was finally determined by addition of CellTiter-Glo® reagent (Biological Industries) and luminescence measurement after 10 min of incubation.
An ATDC5 cell based assay for assessing structure-function relationship of BMP-2 and BMP receptor IA was originally described in Keller et al (Nature Structural & Molecular Biology 2004 11, 481-488). In order to screen a large volume of potential therapeutic agents the ATDC5 cell based bioassay for detecting BMP inhibition was adapted for use in high throughput screening. The bioassay is based on the stimulation of alkaline phosphatase (ALP) production in mouse ATDC5 cells by administration of BMP-2 and heparin, and measurement of ALP levels in the presence of the potential inhibitors. […] This was achieved by using CellTiter-Glo® Luminescent Cell Viability Assay for assessing the cells' viability after the luminescent signal by CDP-Star® has faded. The simultaneous assessment of both ALP production and cells' viability was necessary since potentially toxic tested small molecules may lead to reduced ALP levels by cellular cytotoxicity rather than by interference with BMP-2 signaling. […] Particulars of the bioassay are detailed in the Experimental procedures section above.
A library of small molecules (SM) was screened using the High Throughput Screening bioassay described above. About 7600 SMs were screened, from the Maybridge library, which consists of organic “drug-like” compounds, using the pre-plated HitFinder™ Collection. […] The SM were tested at various concentrations, i.e. at 0.62 μM, 1.25 μM, 2.5 μM, 5 μM and 10 μM.

SMAD1/5/8 signaling = SMAD1/5/8 signaling by Western blot in P19 cells; assay type: cell-based, murine; conditions: 4 h
Method: P19 cells were seeded in 6-well-plates (3.5×10^5 cells/well). On the following day, the cells were either untreated or treated with 5×10^−7 M RA, 5 ng/ml BMP-2 or SMs for 4 h. Cells were washed with ice cold PBS, harvested and lysed with ice cold RIPA buffer (Sigma-Aldrich) supplemented with protease inhibitor cocktail and sodium orthovanadate (Na3VO4) as phosphatase inhibitor (Sigma-Aldrich). Protein concentrations were determined using a BCA protein assay kit (Pierce, Rockford, Ill.). Cell lysates (40-60 μg protein) were separated by 4-15% SDS-PAGE gel electrophoresis and then transferred to nitrocellulose membranes at 0.2 A for 2 h. The membranes were blocked at room temperature for 1 h in 5% (w/v) non-fat-dried milk and then incubated with anti-phospho-Smad1/5/9, anti-Smad1 (Cell signaling Technology, Beverly, Mass., USA) and anti-tubulin (Sigma-Aldrich) antibodies at room temperature for 2 h. The membranes were washed and incubated with alkaline phosphatase-conjugated secondary antibody (Jackson Laboratories Immune Research, PA, USA). Signal was detected using enhanced chemiluminescence kit (Clarity, Bio-Rad Laboratories, Richmond, Calif.) and digital images were captured by MicroChemi (DNR Bio-imaging Systems, Jerusalem, Israel). Protein levels were quantified using ImageJ software and normalized to {alpha}-tubulin.
The canonical BMP signal is known to be mediated via SMAD phosphorylation. BMPs transduce signals by binding to complexes of type I and II serine/threonine kinase receptors. Ligand binding induces phosphorylation of the receptors, which then activate canonical signaling via receptor Smads (R-Smads) 1, 5 and 8. R-Smads are phosphorylated by the activated type I receptor. They then complex with Smad4, triggering nuclear translocation. The effect of the SMs on the phosphorylation of the canonical SMAD1/5/8 signaling, induced in P19 cells in response to stimulation with BMP-2, was examined.

RR-EAE mice = assay: De novo expression of NeuN (BrdU+NeuN+ cells) in SGZ of RR-EAE mice; assay type: in vivo
Method: FIGS. 12A-12B—The effect of SM1, SM7, SM9 and SM6 on de novo expression of mature neurons marker NeuN in the SGZ. FIG. 12A: immunohistochemical images showing the labeling of BrdU^+NeuN^+ cells in the SGZ. Images were obtained using Olympus 8.1 microscope (magnification×10). FIG. 12B: Quantification of BrdU^+NeuN^+ in the SGZ. Analysis was performed using image J software on 3 sections from each mouse (3 mice from each group, total n=9). Values are given as mean±SEM and the results of Student's t-test are represented as *p<0.05.
RR-EAE induced mice were intraperitoneally injected with 250 μg/mouse (Low-L) or 500 μg/mouse (High-H) of the small molecules SM1, SM7, SM9, SM6, or the corresponding vehicle. The SMs were injected each day starting on day 9 post immunization for 30 days. For immunohistochemical analysis, 3 mice of each group were intraperitoneally injected daily with bromo-2′-deoxyuridine (BrdU) starting from day 9 post immunization for 8 following days.
In this experiment, the amount of BrdU^+NeuN^+ cells in the SGZ of mice was evaluated. FIGS. 12A-12B show immunohistochemical labeling of BrdU^+NeuN^+ cells in mice with EAE that were treated with SMs or vehicle, using Olympus 8.1 microscope (magnification×10).

[1] = high dose (H) 500 μg/mouse i.p. daily

Compound: COC(=O)c1sccc1N/N=C(\C#N)S(=O)(=O)c1cccs1 [SM1, Methyl 3-[(2E)-2-[cyano(thiophen-2-ylsulfonyl)methylidene]hydrazinyl]thiophene-2-carboxylate]
- IC50 (BMP-2): 2.6 µM
- reduction in p-SMAD/tubulin compared to stimulation with BMP-2 alone (SMAD1/5/8 signaling; 2.5 μM): 24.2%
- reduction in p-SMAD/tubulin compared to stimulation with BMP-2 alone (SMAD1/5/8 signaling; 5 μM): 19.9%
- BrdU+NeuN+ cells in the SGZ vs. vehicle (RR-EAE mice; [1]): significant increased induction

Compound: O=C(Nc1cccc(C(F)(F)F)c1)c1ccc([N+](=O)[O-])o1 [SM6, N2-[3-(trifluoromethyl)phenyl)-5-nitro-2-furamide]
- IC50 (BMP-2): 9.7 µM

Compound: N#Cc1c(O)nsc1Nc1ccccc1C(F)(F)F [SM7, 3-hydroxy-5-[2-(trifluoromethyl)aniline]isothiazole-4-carbonitrile]
- inhibition at 2.5 µM (BMP-2): 47.3%
- IC50 (BMP-2): 2.2 µM
- reduction in p-SMAD/tubulin compared to stimulation with BMP-2 alone (SMAD1/5/8 signaling; 2.5 μM): 40.0%

Compound: CS(=O)(=O)c1noc(-c2ccc(Cl)cc2)c1C#N [SM9, 5-(4-chlorophenyl)-3-methylsulfonyl-1,2-oxazole-4-carbonitrile]
- inhibition at 2.5 µM (BMP-2): 29.1%
- IC50 (BMP-2): 4.4 µM
- reduction in p-SMAD/tubulin compared to stimulation with BMP-2 alone (SMAD1/5/8 signaling; 2.5 μM): 42.7%
- BrdU+NeuN+ cells in the SGZ vs. vehicle (RR-EAE mice; [1]): trend for increased
- BrdU+NeuN+ cells in the SGZ vs. vehicle (RR-EAE mice; low dose (L) 250 μg/mouse i.p. daily): significant increased induction
